Data as given in patent US9364477B2, “Mutant ROS expression in human cancer” (Cell Signaling Technology, Inc., priority 2009, dated 2016).

Experiments:
Karpas 299 cells [1] = experiment: Cleaved caspase-3 flow cytometry apoptosis assay, Karpas 299; type: cell-based; settings: presence of TAE-684
Description: (§1) The mechanism of death of the BaF3 and Karpas 299 cells was next reviewed by measuring the percentage of cleaved-caspase 3 positive cells by flow cytometry assay using cleaved caspase-3 as a marker for apoptosis.

[2] = test system: BaF3 expressing FIG-ROS(S); experiment: MTS cell growth assay, BaF3 expressing FIG-ROS(S); type: cell-based, Murine
Method: (§2) BaF3 cells were transduced with retrovirus encoding FIG-ROS(S), FIG-ROS(L), or FLT-31TD (the Internal tandem duplication mutation in FLT3 causes AML leukemia), and selected for IL3 independent growth. Karpas 299 cells, which express NPM-ALK, was used as a positive control.
(§3) After 72 hours, 20 ul of the CellTiter 96 Aqueous One Solution Reagent was added into each well of a 96 well assay plate (flat bottom), and then 100 ul of cells grown with or without treatment. Media-only wells were used as controls. The 96 well plate was incubated for 1-4 hours at 37° C., and then viable cells were counted by reading the absorbance at 490 nm using a 96 well plate reader.

[3] = test system: BaF3 cells expressing FIG-ROS(S); experiment: Cleaved caspase-3 flow cytometry apoptosis assay, BaF3 FIG-ROS(S); type: cell-based, Murine; settings: presence of TAE-684
Description: as §1

[4] = test system: BaF3 cells transduced with the FLT-31TD retrovirus; experiment: Western blotting of phosphorylation, BaF3 FLT-31TD; type: cell-based, Murine; settings: 0, 10, 50, or 100 nM TAE-684 for three hours
[5] = test system: BaF3 cells expressing FIG-ROS(L); experiment: Cleaved caspase-3 flow cytometry apoptosis assay, BaF3 FIG-ROS(L); type: cell-based, Murine; settings: presence of TAE-684
Description: as §1

Karpas 299 cells [6] = experiment: MTS cell growth assay, Karpas 299 cells (NPM-ALK); type: cell-based; settings: 0-1000 nM TAE-684, 72 hours
Method: as §2, §3

[7] = test system: BaF3 expressing FIG-ROS(L); experiment: MTS cell growth assay, BaF3 expressing FIG-ROS(L); type: cell-based, Murine; settings: 0-1000 nM TAE-684, 72 hours
Method: as §2, §3

BaF3 expressing FLT3ITD = experiment: MTS cell growth assay, BaF3 transduced with FLT3/ITD; type: cell-based, Murine; settings: 0-1000 nM TAE-684, 72 hours
Method: as §2, §3

FIG-ROS(L) = FIG-ROS(L) (Homo sapiens, UniProt P08922); experiment: Western blotting of phosphorylation, BaF3 FIG-ROS(L); type: cell-based; settings: 0, 10, 50, or 100 nM TAE-684 for three hours
FIG-ROS(S) = FIG-ROS(S) (Homo sapiens, UniProt P08922); experiment: Western blotting of phosphorylation, BaF3 FIG-ROS(S); type: cell-based; settings: 0, 10, 50, or 100 nM TAE-684 for three hours
[8] = test system: Ros (D4D6) XP™ Rabbit mAb; settings: HCC78 cells; antibody 0.19 μg/ml; peptide 1.9 ug/ml
Method: Briefly, paraffin embedded HCC78 cell pellets were deparaffinized and rehydrated through three changes of xylene and graded ethanol, then rinsed in diH2O. Slides were subjected to antigen retrieval in 1.0 mM EDTA, pH 8.0 in the microwave. After blocking for 1 hour in TBST/5% goat serum, slides were incubated overnight at 4° C. with Ros (D4D6) XP™ Rabbit mAb at 0.19 μg/ml in the absence of peptide or in the presence of one of 13 different ROS peptides at 1.9 ug/ml.
After washing, detection was performed with SignalStain® Boost IHC Detection Reagent (HRP, Rabbit) #8114 and NovaRed (Vector Laboratories, Burlingame, Calif.).

Row | Compound | cell cycle arrest (Karpas 299 cells [1]) | death by apoptosis (cleaved-caspase 3 positive cells) (Karpas 299 cells [1]) | cellular growth response in the presence of TAE-684 ([2]; BaF3 FIG-ROS(S), 0-1000 nM TAE-684, 72 hours, MTS) | susceptibility of FIG-ROS(S) to TAE-684 compared with FIG-ROS(L) ([2]; BaF3 cells, MTS assay) | death by apoptosis (cleaved-caspase 3 positive cells) [3] | phosphorylation of STAT3, AKT, and ERK, and Shp2 [4] | death by apoptosis (cleaved-caspase 3 positive cells) [5] | cellular growth response in the presence of TAE-684 (Karpas 299 cells [6]) | cellular growth response in the presence of TAE-684 [7] | cellular growth response in the presence of TAE-684 (BaF3 expressing FLT3ITD) | phosphorylation of FIG-ROS(L) (FIG-ROS(L)) | phosphorylation of STAT3, AKT, and ERK, and Shp2 (downstream signaling molecules) (FIG-ROS(L)) | phosphorylation of FIG-ROS(S) (FIG-ROS(S)) | phosphorylation of STAT3, AKT, and ERK, and Shp2 (downstream signaling molecules) (FIG-ROS(S)) | competition of ROS antibody binding off the IHC slide [8]
1 | COc1cc(N2CCC(N3CCN(C)CC3)CC2)ccc1Nc1ncc(Cl)c(Nc2ccccc2S(=O)(=O)C(C)C)n1 [TAE-684] | underwent cell cycle arrest | did not die by apoptosis | stopped growing | less susceptible | die by apoptosis | not affected | die by apoptosis | stopped growing | stopped growing | not susceptible | inhibited | inhibited | inhibited | inhibited | 
2 | (biotin)AGAGVAYCPSGKPE [peptide 9] |  |  |  |  |  |  |  |  |  |  |  |  |  |  | able to compete
